The values that follow come from PMC6153434, “Bystander Effects of Hypoxia-Activated Prodrugs: Agent-Based Modeling Using Three Dimensional Cell Cultures” (Frontiers in Pharmacology, 2018).

The conditions of data set [1]: ref Hicks et al., 2010; Wang et al., 2014; Gu et al., 2017; cited from earlier work.
The conditions of data set [2]: pH 7.4.
In the next data set the test system is POR-R cells. Description: LC-MS/MS assay for PR104A metabolites in anoxic cultures. The data set is classed as in vitro ADME. Conditions: 100 μM PR104A, 3 h, anoxia. On the procedure: POR-R cells (10^6 cells/0.5 mL) in 24-well plates were exposed to 100 μM PR104A under anoxia for 3 h. Plates were centrifuged (216 × g, 4°C, 8 min) extracellular medium was removed and proteins precipitated with an equal volume of ice-cold methanol. Cold methanol (100 μL) was then added to each well to extract intracellular PR104A and metabolites. Samples were stored at -80°C, then thawed, centrifuged (13,000 × g, 5 min, 4°C), diluted with two volumes of ammonium formate buffer (4.5 mM, pH 4.5) and analyzed with an Agilent LC-MS/MS (model 6460) using an electrospray ionization/atmospheric pressure chemical ionization multimode source and photodiode array absorbance detector as described previously ([Patel et al., 2007]).

The next data set has as its system HCT116 and HCT116/POR#6. Conditions: published value; PR104H+M model; ref Foehrenbacher et al., 2013; cited from earlier work.
The test system of data set [3] is high-POR 'activator' HCT116 cell lines (POR-R, POR-G). The data set is classed as cell-based.
Data set [4] concerns POR-null 'target' HCT116 cells in spheroids. The data set is classed as cell-based.
Data set [5] deals with POR-R activators and PORko-G targets (HCT116). Description: SN30000 'no bystander effect' agent-based model parameters. Conditions: ABM parameter.
Data set [6] deals with anoxic MCLs of POR-R activators and PORko-G targets. Conditions: 100 μM in donor; differing proportions of POR-R activators.
For a further data set, the system named is HCT116 cells. Conditions: cited from earlier work.
[7] abbreviates: published value, ref Hicks et al., 2010.
[8] abbreviates: published value, ref Mao et al., 2018.

As for `[O-][n+]1nc(CCCN2CCOCC2)nc2cc3c(cc21)CCC3` [1-oxide], the “cytotoxicity of downstream metabolites of SN30000” value in data set [1] is “non-cytotoxic”.
`O=C(NCCCO)c1cc(N(CCBr)CCBr)c([N+](=O)[O-])cc1[N+](=O)[O-]` [I Br Br (CH2)3OH]: the “Measured logD7.4” value in data set [2] was determined as 1.81.
For the compound `O=C(NCCO)c1cc(N(CCBr)CCBr)c([N+](=O)[O-])cc1[N+](=O)[O-]` [I Br Br CH2CH2OH], the “Measured logD7.4” value in data set [2] is on record as 1.69.
Regarding `O=C(NCC(O)CO)c1cc(N(CCBr)CCBr)c([N+](=O)[O-])cc1[N+](=O)[O-]` (centres unmarked) [I Br Br CH2CHOHCH2OH], in data set [2], the “Measured logD7.4” value turned out to be 1.25.
With `NC(=O)c1cc(N(CCBr)CCBr)c([N+](=O)[O-])cc1[N+](=O)[O-]` [I Br Br H], in data set [2], the “Measured logD7.4” value is recorded as 1.97.
Consider `CS(=O)(=O)OCCN(CCBr)c1cc(C(=O)NCCO)c([N+](=O)[O-])cc1[N+](=O)[O-]` [I Br OSO2CH3 CH2CH2OH], for which the “Measured logD7.4” value in data set [2] was 0.461.
`CS(=O)(=O)OCCN(CCBr)c1cc(C(=O)NCC(O)CO)c([N+](=O)[O-])cc1[N+](=O)[O-]` (centres unmarked) [I Br OSO2CH3 CH2CHOHCH2OH]: the “Measured logD7.4” value in data set [2] is listed as -0.0453.
Same read-out and setting: the figure for `CS(=O)(=O)OCCN(CCBr)c1cc(C(N)=O)c([N+](=O)[O-])cc1[N+](=O)[O-]` [I Br OSO2CH3 H] is 0.493; for `NC(=O)c1cc(N(CCCl)CCBr)c([N+](=O)[O-])cc1[N+](=O)[O-]` [I Cl Br H] it is 1.61.
On the same count and under the same terms, the figure for `O=C(NCCCO)c1cc(N(CCCl)CCCl)c([N+](=O)[O-])cc1[N+](=O)[O-]` [I Cl Cl (CH2)3OH] is 1.49; for `O=C(NCCN1CCOCC1)c1cc(N(CCCl)CCCl)c([N+](=O)[O-])cc1[N+](=O)[O-]` [I Cl Cl CH2CH2-Nmorp] it is 1.6.
With `O=C(NCCO)c1cc(N(CCCl)CCCl)c([N+](=O)[O-])cc1[N+](=O)[O-]` [I Cl Cl CH2CH2OH], the “Measured logD7.4” value in data set [2] is on record as 1.315.
As to `O=C(NCC(O)CO)c1cc(N(CCCl)CCCl)c([N+](=O)[O-])cc1[N+](=O)[O-]` (centres unmarked) [I Cl Cl CH2CHOHCH2OH], the “Measured logD7.4” value in data set [2] is reported as 0.93.
`NC(=O)c1cc(N(CCCl)CCCl)c([N+](=O)[O-])cc1[N+](=O)[O-]` [I Cl Cl H]: the “Measured logD7.4” value in data set [2] worked out at 1.515.
For the compound `O=C(NO)c1cc(N(CCCl)CCCl)c([N+](=O)[O-])cc1[N+](=O)[O-]` [I Cl Cl OH], in [2], the “Measured logD7.4” value was determined as 1.22.
The same measure, in the same setting: the same measure for `CS(=O)(=O)OCCN(CCCl)c1cc(C(N)=O)c([N+](=O)[O-])cc1[N+](=O)[O-]` [I Cl OSO2CH3 H]: 0.425; for `O=C(NCC(O)CO)c1cc(N(CCI)CCI)c([N+](=O)[O-])cc1[N+](=O)[O-]` (centres unmarked) [I Iodo Iodo CH2CHOHCH2OH]: 1.79; for `NC(=O)c1cc(N(CCI)CCI)c([N+](=O)[O-])cc1[N+](=O)[O-]` [I Iodo Iodo H]: 2.408.
On to `CS(=O)(=O)OCCN(CCI)c1cc(C(N)=O)c([N+](=O)[O-])cc1[N+](=O)[O-]` [I Iodo OSO2CH3 H], for which, in data set [2], the “Measured logD7.4” value is reported as 0.743.
With `CS(=O)(=O)OCCN(CCOS(C)(=O)=O)c1cc(C(N)=O)c([N+](=O)[O-])cc1[N+](=O)[O-]` [I OSO2CH3 OSO2CH3 H], in [2], the “Measured logD7.4” value is -0.701.
As to `NC(=O)c1cc(N(CCOS(N)(=O)=O)CCOS(N)(=O)=O)c([N+](=O)[O-])cc1[N+](=O)[O-]` [I OSO2NH2 OSO2NH2 H], in data set [2], the “Measured logD7.4” value is reported as -0.95.
On the same count and under the same terms, the same measure for `CS(=O)(=O)c1cc([N+](=O)[O-])c(C(N)=O)cc1N(CCBr)CCBr` [II Br Br H]: 1.18; for `NC(=O)c1cc(N(CCO)CCO)c([N+](=O)[O-])cc1N` [III OH OH H]: -0.445.
As for `O=C(NCCO)c1cc([N+](=O)[O-])cc([N+](=O)[O-])c1N(CCBr)CCBr` [IV Br Br CH2CH2OH], the “Measured logD7.4” value in data set [2] is given as 2.33.
Still for that read-out and setting: the same measure for `O=C(NCC(O)CO)c1cc([N+](=O)[O-])cc([N+](=O)[O-])c1N(CCBr)CCBr` (centres unmarked) [IV Br Br CH2CHOHCH2OH]: 1.83; for `NC(=O)c1cc([N+](=O)[O-])cc([N+](=O)[O-])c1N(CCBr)CCBr` [IV Br Br H]: 2.63; for `CS(=O)(=O)OCCN(CCBr)c1c(C(=O)NCCO)cc([N+](=O)[O-])cc1[N+](=O)[O-]` [IV Br OSO2CH3 CH2CH2OH]: 1.01.
Consider `CS(=O)(=O)OCCN(CCBr)c1c(C(=O)NCC(O)CO)cc([N+](=O)[O-])cc1[N+](=O)[O-]` (centres unmarked) [IV Br OSO2CH3 CH2CHOHCH2OH], for which, in data set [2], the “Measured logD7.4” value was 0.589.
Turning to `CS(=O)(=O)OCCN(CCBr)c1c(C(N)=O)cc([N+](=O)[O-])cc1[N+](=O)[O-]` [IV Br OSO2CH3 H], the “Measured logD7.4” value in [2] is listed as 1.23.
The same measure, in the same setting: the figure for `O=C(NCCCO)c1cc([N+](=O)[O-])cc([N+](=O)[O-])c1N(CCCl)CCCl` [IV Cl Cl (CH2)3OH] is 2.
The same measure, in the same setting: the same measure for `O=C(NCCO)c1cc([N+](=O)[O-])cc([N+](=O)[O-])c1N(CCCl)CCCl` [IV Cl Cl CH2CH2OH]: 1.92.
The same measure, in the same setting: the same measure for `CS(=O)(=O)OCCN(CCCl)c1c(C(N)=O)cc([N+](=O)[O-])cc1[N+](=O)[O-]` [IV Cl OSO2CH3 H]: 1.02.
In the case of `NC(=O)c1cc([N+](=O)[O-])cc([N+](=O)[O-])c1N(CCI)CCI` [IV Iodo Iodo H], the “Measured logD7.4” value in data set [2] is on record as 3.08.
For the compound `Nc1cc(C(=O)NCCO)c(N(CCCl)CCCl)c([N+](=O)[O-])c1` [Metabolite B], the “extracellular concentration relative to PR104H” value in the data set with POR-R cells (P = 0.02) is “fivefold higher”.
Consider `CS(=O)(=O)OCCN(CCBr)c1c(C(=O)NCCO)cc(NO)cc1[N+](=O)[O-]` [PR104H], for which the intracellular metabolite profile entry in the data set on POR-R cells is “major intracellular metabolite”. Besides, the “Kc, intrinsic cytotoxic potency” value with HCT116 and HCT116/POR#6 is 92 M⁻¹ s⁻¹.
Turning to `[O-][n+]1nc(CCCN2CCOCC2)[n+]([O-])c2cc3c(cc21)CCC3` [SN30000], the “sensitivity of activator cell lines (clonogenic survival)” value in [3] is given as “marked increases in the sensitivity”. In addition, in data set [4], the bystander effect entry is “trivially small” and the “killing of target cells as proportion of activators increases” value is “increasing proportions of POR-R activators reduced killing of PORko-G targets”. In addition, the “Half-life, non-enzymatic loss in culture medium” value in [5] (37 °C) is 1000 days. Also, in [5], the “F2, proportion of O2-dependent metabolism of the drug” value turned out to be 1; the Hill parameter n is given as 1.7; the “KO2, O2 concentration for half-maximum prodrug activation” value is reported as 1.14; the “Kc, intrinsic cytotoxic potency of the prodrug” value amounted to 1800 M⁻¹ s⁻¹. In [5], the “Kin, rate constant for transfer from the extracellular to the intracellular compartment” value turned out to be 10 min⁻¹ and the “Kout, rate constant for transfer from the intracellular to the extracellular compartment” value turned out to be 10 min⁻¹. In data set [5] (POR-R activators, adjusted to optimize monolayer fits), the “Activator Kmet,0, rate constant for the maximum rate of metabolism in activator cells under anoxia” value came to 14 min⁻¹. Also, in data set [5] (PORko-G targets, adjusted to optimize monolayer fits), the “Target Kmet,0, rate constant for the maximum rate of metabolism in target cells under anoxia” value amounted to 1.3 min⁻¹. Moreover, the “net diffusion through anoxic MCLs” value in [6] is “lowered by increasing proportions of activator cells”. Moreover, the “Half-life, non-enzymatic loss in culture medium” value in the data set on HCT116 cells (37 °C, published value, ref Mao et al., 2018) is 1000 days. In addition, in the data set with HCT116 cells (oxygen dependence of metabolism, published value, ref Mao et al., 2018), the Hill parameter n is given as 1.7. Moreover, the “Kmet,0, rate constant for the maximum rate of metabolism under anoxia” value with HCT116 cells (parental HCT116 cells (listed as Target Kmet,0 published value), ref Mao et al., 2018) was 1.88 min⁻¹. Moreover, in the data set with HCT116 cells (setting [7]), the “F2, proportion of O2-dependent metabolism of the drug” value is given as 1 and the “KO2, O2 concentration for half-maximum prodrug activation” value was 1.14. Also, in the data set on HCT116 cells (setting [8]), the “Kin, rate constant for transfer from the extracellular to the intracellular compartment” value was 10 min⁻¹ and the “Kout, rate constant for transfer from the intracellular to the extracellular compartment” value is 10 min⁻¹.
As for `NC(=O)c1cc(NO)cc([N+](=O)[O-])c1N(CCCl)CCCl` [V Cl Cl H], the “Measured logD7.4” value in [2] is listed as 2.19.
The same measure, in the same setting: the figure for `NC(=O)c1cc(NO)cc([N+](=O)[O-])c1N(CCO)CCO` [V OH OH H] is -1.36; for `O=C(NCC(O)CO)c1c([N+](=O)[O-])ccc(N(CCBr)CCBr)c1[N+](=O)[O-]` (centres unmarked) [VI Br Br CH2CHOHCH2OH] it is 1.04; for `CS(=O)(=O)OCCN(CCBr)c1ccc([N+](=O)[O-])c(C(=O)NCC(O)CO)c1[N+](=O)[O-]` (centres unmarked) [VI Br OSO2CH3 CH2CHOHCH2OH] it is -0.373.
On the same count and under the same terms, the figure for `NC(=O)c1c([N+](=O)[O-])ccc(N(CCCl)CCCl)c1[N+](=O)[O-]` [VI Cl Cl H] is 1.41.
`c1c2c(cc3nc(CCCN4CCOCC4)nnc13)CCC2` [nor-oxide]: the “cytotoxicity of downstream metabolites of SN30000” value in data set [1] is “non-cytotoxic”.
